Test: gradient 5% acetonitrile 3 min, to 50% in 2 min, to 85% in 15 min, held 3 min, 100 µL/min
Conditions: column: Zorbax Extend-C18 2.1 x 50 mm; eluents: water / acetonitrile, 0.1% formic acid
How it was run: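 Pure standards were analyzed in mixtures of ~100 molecules using HPLC coupled to a quadrupole time-of-flight mass spectrometer, in both positive and negative ionization mode. Separation used a Zorbax Extend-C18 column (2.1 × 50 mm, 1.8 μm) at 100 μL/min, with water and acetonitrile each containing 0.1% formic acid. Dead and dwell volumes were 40 μL and 900 μL, and data were collected over 3 months. Retention time was read from computationally picked adduct peaks, each inspected manually.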
In the case of `O=C(c1cc2ccccc2[nH]1)N1CCC(Cn2c(C(F)(F)F)nc3ccccc32)CC1`, the RP-LC retention time is reported as 881 s.
Work on `CCOc1ccc(-c2[nH]nc3nc(-c4cccc(F)c4)cc(C(=O)O)c23)cc1` yielded an RP-LC retention time of 843 s.
Molecule `CCc1ccc(C2=C(C)C(N3CCCN(C(=O)c4cccs4)CC3)=NS2(=O)=O)cc1` has an RP-LC retention time of 893 s.
`CC1CCCN(c2nc(=O)n(CC(=O)Nc3ccc(F)cc3)c3ccccc23)C1` (stereo unspecified) showed an RP-LC retention time of 841 s.
Work on `Cc1ccc2c(c1)N(Cc1ccccc1)N=C(C(=O)N1CCCC1)S2(=O)=O` yielded an RP-LC retention time of 876 s.
`Cc1ccccc1-n1c(=O)c2sccc2n(Cc2nc(-c3ccccc3)no2)c1=O` gave an RP-LC retention time of 1000 s.
`O=S(=O)(c1cc(-c2cc(C(F)(F)F)on2)cs1)N(Cc1ccco1)C1CCCCC1` gave an RP-LC retention time of 1300 s.
`COc1ccccc1/C=C/C(=O)/C=C/c1ccccc1O` gave an RP-LC retention time of 772 s.
For `CC(=O)N1c2ccc(S(=O)(=O)N3CCCC3)cc2CC1C(=O)NCCN1CCCCCC1` (stereo unspecified), the RP-LC retention time was 630 s.
For `O=C(Nc1ccc(-n2cnnn2)cc1)C1CN(c2nc3ccccc3s2)C1`, the RP-LC retention time was 659 s.
Work on `CCc1ccccc1NS(=O)(=O)c1cc(-c2[nH]ncc2C(=O)N2CCOCC2)oc1C` yielded an RP-LC retention time of 721 s.
Work on `CN1CCN(C(CNC(=O)C(=O)Nc2ccc(F)cc2F)c2ccc3c(c2)OCO3)CC1` (stereo unspecified) yielded an RP-LC retention time of 685 s.
In the case of `COc1cc(C(=O)Nc2nc3c(s2)CCc2ccccc2-3)cc(OC)c1OC`, the RP-LC retention time is reported as 1110 s.
Molecule `COc1cccc2c1OC1(C)CC2C(S(=O)(=O)c2ccc(C(C)(C)C)cc2)C(=O)N1` (stereo unspecified) has an RP-LC retention time of 1010 s.
`CCNC(=O)C1CCCN(c2nc3ncn(CC(=O)Nc4ccccc4)c(=O)c3s2)C1` (stereo unspecified) showed an RP-LC retention time of 644 s.
In the case of `O=C(NCCCN1CCN(C2CCCCC2)CC1)C1CCCN(C(=O)c2cccc(Cl)c2)C1` (stereo unspecified), the RP-LC retention time is reported as 584 s.
For `Cc1nn(C)cc1CN(C)C(=O)CCC1CCCN(c2cc(NC3CC3)ncn2)C1` (stereo unspecified), the RP-LC retention time was 597 s.
Work on `Cn1cc(CCN2CCC(C(=O)NCc3ccc(F)cc3Cl)CC2)c2cccnc21` yielded an RP-LC retention time of 640 s.
Work on `COc1ccc(CNC(=O)C2CCN(c3nc(C4CCC4)nc4csc(C)c34)CC2)cc1OC` yielded an RP-LC retention time of 957 s.
`O=c1cc(O)cc(/C=C/c2ccc(O)c(O)c2)o1` showed an RP-LC retention time of 680 s.
`CCc1ccc(NC(=O)C2CC(=O)N(CCc3c[nH]c4ccc(F)cc34)C2)cc1` (stereo unspecified) showed an RP-LC retention time of 873 s.
Molecule `O=C(NCc1ccco1)c1cc(C2CC2)on1` has an RP-LC retention time of 717 s.
For `CCSc1nc2ccc(NS(=O)(=O)Cc3cc(C)ccc3C)cc2s1`, the RP-LC retention time was 1150 s.
For `O=C(NC1CCN(c2cc(-c3cccnc3)[nH]n2)CC1)c1ccc(F)c(Cl)c1`, the RP-LC retention time was 643 s.
`COC(=O)c1ccc(C(=O)Nc2ccncc2NC(=O)c2ccc(C(=O)OC)cc2)cc1` gave an RP-LC retention time of 646 s.
`C#CCNc1ccc(C(=O)OCC)cc1` showed an RP-LC retention time of 879 s.
In the case of `CCOc1ccc(CN2C[C@@H]3C(=O)N(CCCN4CCCC4=O)C(=O)[C@@H]3C2)cc1`, the RP-LC retention time is reported as 610 s.
Work on `COc1ccc(C2(C(=O)N3CC[C@@H]4CN(Cc5ccccc5)[C@@H]4C3)CC2)cc1` yielded an RP-LC retention time of 652 s.
Molecule `COc1cc2c(cc1OC)C(C(=O)NCc1ccccn1)C1c3ccccc3CCN1C2=O` (stereo unspecified) has an RP-LC retention time of 616 s.
With `Cc1nc(-c2cn(C)c3ncccc23)sc1C(=O)NCc1ccc(F)cc1F` the RP-LC retention time was 887 s.
Molecule `O=C(NCC1CCOCC1)c1n[nH]c2ccccc12` has an RP-LC retention time of 654 s.
Work on `COc1ccc(C)cc1NC(=O)CN1C(=O)C(C)(C)c2cc(C)ccc21` yielded an RP-LC retention time of 588 s.
With `COc1ccc(-c2nc(-c3ccc(-n4ccnc4)nc3)no2)c(OC)c1` the RP-LC retention time was 698 s.
`CN(C)C(CNC(=O)Nc1cccs1)c1cccs1` (stereo unspecified) gave an RP-LC retention time of 556 s.
In the case of `O=C(NCCN1CCOCC1)c1ccc(-c2c(-c3ccc(F)cc3)ncn2C2CCCC2)o1`, the RP-LC retention time is reported as 592 s.
Molecule `COc1ccc(-c2nnc(Cc3nc(-c4ccccc4F)no3)o2)cc1OC` has an RP-LC retention time of 848 s.
`CC(=O)c1ccc(NC(=O)COc2cc(C)nc(N3CCCCCC3)n2)cc1` gave an RP-LC retention time of 642 s.
`Cc1ccc(-c2nnc3ccc(SCC(=O)OCc4ccccc4)nn23)cc1` gave an RP-LC retention time of 840 s.
`Cc1ccc(N2C(=O)CN(S(C)(=O)=O)CC2(C)C(=O)NCc2ccc(F)cc2)cc1Cl` (stereo unspecified) showed an RP-LC retention time of 877 s.
`O=c1c(-c2ccccc2)c(N2CCN(c3ccccn3)CC2)c1=O` showed an RP-LC retention time of 620 s.
Molecule `O=C(c1ccc(F)c(F)c1)N1CCC2(CC1)N=C(c1ccc(Cl)cc1)NO2` has an RP-LC retention time of 920 s.
Molecule `CCN(CC)C(=O)CS(=O)Cc1cnn(-c2ccccc2)c1-n1cccc1` (stereo unspecified) has an RP-LC retention time of 754 s.
`CC1=C(c2cccc(Cl)c2)S(=O)(=O)N=C1N1CCC(NC(=O)c2ccoc2)CC1` showed an RP-LC retention time of 799 s.
`COC(=O)c1ccc(C2CC(=O)NC3=C2C(=O)CC(c2ccc(F)cc2)C3)cc1` (stereo unspecified) showed an RP-LC retention time of 820 s.
For `Cc1ccc(C)c(NC(=O)Cn2ccc3ccn(C)c3c2=O)c1`, the RP-LC retention time was 784 s.
For `COc1ccc(-c2noc(Cc3nnc(-c4cccc(C)c4)o3)n2)cc1F`, the RP-LC retention time was 1040 s.
Work on `O=C1CC(C(F)(F)F)c2c(c(C(=O)O)cn2-c2ccc(Cl)cc2)N1` (stereo unspecified) yielded an RP-LC retention time of 786 s.
In the case of `Cc1nc(CCNC(=O)Cc2ccsc2)no1`, the RP-LC retention time is reported as 640 s.
In the case of `CC(C)NC(=O)C1CCN(S(C)(=O)=O)c2cc(Cl)ccc2O1` (stereo unspecified), the RP-LC retention time is reported as 777 s.
Work on `C[C@H](C(=O)O)c1cccc(C(=O)c2ccccc2)c1` yielded an RP-LC retention time of 866 s.
Molecule `Fc1cccc(CN2CCC(N3CC(OCC4CC4)C34CCCCC4)CC2)c1` (stereo unspecified) has an RP-LC retention time of 588 s.
In the case of `COc1cc(NC(=O)Cn2ccnc2-c2ccnc(N3CCOCC3)c2)cc(OC)c1`, the RP-LC retention time is reported as 625 s.
`Cc1ccc(C2C(S(=O)(=O)c3ccc(C)cc3)=C(O)C(=O)N2Cc2ccco2)cc1` (stereo unspecified) showed an RP-LC retention time of 976 s.
`O=C(NCc1ccc(F)c(Cl)c1)C1CCN(c2ncnc3c2oc2ccccc23)CC1` showed an RP-LC retention time of 781 s.
`Cc1ccc(N2CCN(CC(O)COc3cccc(C)c3)CC2)cc1` (stereo unspecified) showed an RP-LC retention time of 782 s.
`CCOC(=O)c1[nH]c(C)c(CCC(=O)N2CCCC(C(=O)NCc3cc(OC)ccc3OC)C2)c1C` (stereo unspecified) showed an RP-LC retention time of 799 s.

— the METLIN SMRT retention time set (Domingo-Almenara et al. 2019)
